From patent publication US20200216439A1, “HETERO-1,5,6,7-TETRAHYDRO-4H-INDOL-4-ONES” (BAYER PHARMA AKTIENGESELLSCHAFT, priority 2015, published 2020) come the findings set out here.

The structures appear in SMILES notation.

The target in this experiment is T1, catalytic domain of human Bub1 (amino acids 704-1085) (Homo sapiens, UniProt O43683).
T1 construct: catalytic domain of human Bub1 (amino acids 704-1085); His6 (N); made in house; host or cells: Hi5 insect cells
The experiment can be described thus: Bub1 kinase assay (TR-FRET). It counts as biochemical. The following applies: TR-FRET; ATP 10 μM, peptide substrate 1 μM; 60 min at 22° C.; average or median if tested more than once; read-out: Inhibition of Bub1 kinase IC50. The gist of the method:
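Human Bub1 catalytic domain (704-1085, His6-tagged, Hi5-expressed, ~200 ng/mL) preincubated with compound 15 min at 22 °C, then reacted 60 min at 22 °C with 10 μM ATP and 1 μM biotinylated peptide substrate, pH 7.5. EDTA stop; TR-FRET 665/620 ratio; IC50 from 4-parameter fit, 11 concentrations in duplicate.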
(In general: In TR-FRET formats the signal depends on donor and acceptor labels being close together.)

T1 sequence (O43683 704-1085): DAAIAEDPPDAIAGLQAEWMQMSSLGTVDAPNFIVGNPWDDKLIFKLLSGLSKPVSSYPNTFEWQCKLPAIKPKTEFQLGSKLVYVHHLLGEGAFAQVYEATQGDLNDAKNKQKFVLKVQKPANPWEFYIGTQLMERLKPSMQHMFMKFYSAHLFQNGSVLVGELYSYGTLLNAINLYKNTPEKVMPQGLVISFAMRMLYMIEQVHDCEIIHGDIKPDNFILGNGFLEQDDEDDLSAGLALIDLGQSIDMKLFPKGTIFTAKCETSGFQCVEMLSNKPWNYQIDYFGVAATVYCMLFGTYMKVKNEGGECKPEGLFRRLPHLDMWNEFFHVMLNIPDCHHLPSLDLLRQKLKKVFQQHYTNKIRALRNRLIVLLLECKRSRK

Regarding `CC(C)(C)C(=O)N1CC(=O)c2c([nH]c(-c3ccncc3)c2Nc2ccccc2)C1` [Example 9, 6-(2,2-Dimethylpropanoyl)-3-(phenylamino)-2-(pyridin-4-yl)-1,5,6,7-tetrahydro-4H-pyrrolo[2,3-c]pyridin-4-one], the IC50 (in general, the concentration at which inhibition is half-maximal) was determined as 4 nM.
As for `CS(=O)(=O)N1CC(=O)c2c([nH]c(-c3ccnc(NC(=O)C4CC4(F)F)c3)c2Nc2ccccc2)C1` (racemic) [Example 149, (1RS)—N-{4-[3-Anilino-6-(methylsulfonyl)-4-oxo-4,5,6,7-tetrahydro-1H-pyrrolo[2,3-c]pyridin-2-yl]pyridin-2-yl}-2,2-difluorocyclopropanecarboxamide], the figure is 4 nM; as for `O=C1CN(S(=O)(=O)c2cccnc2)Cc2[nH]c(-c3ccncc3)c(Nc3ccccc3)c21` [Example 75, 3-(phenylamino)-2-(pyridin-4-yl)-6-(pyridin-3-ylsulfonyl)-1,5,6,7-tetrahydro-4H-pyrrolo[2,3-c]pyridin-4-one], 6 nM.
As for `CC(=O)Nc1cc(-c2[nH]c3c(c2Nc2ccccc2)C(=O)CN(C(=O)N2CCCC2)C3)ccn1` [Example 126, N-{4-[3-Anilino-4-oxo-6-(pyrrolidin-1-ylcarbonyl)-4,5,6,7-tetrahydro-1H-pyrrolo[2,3-c]pyridin-2-yl]pyridin-2-yl}acetamide], the figure is 7 nM; as for `CN(C)C(=O)N1CC(=O)c2c([nH]c(-c3ccnc(NC(=O)[C@@H]4C[C@@H]4F)c3)c2Nc2ccccc2)C1` [Example 207, 2-[2-([(1S,2S)-2-Fluorocyclopropyl]carbonylamino)pyridin-4-yl]-N,N-dimethyl-4-oxo-3-(phenylamino)-1,4,5,7-tetrahydro-6H-pyrrolo[2,3-c]pyridine-6-carboxamide], 3 nM; as for `COC(=O)Nc1cc(-c2[nH]c3c(c2Nc2ccccc2)C(=O)COC3)ccn1` [Example 53, Methyl {4-[4-oxo-3-(phenylamino)-1,4,5,7-tetrahydropyrano[3,4-b]pyrrol-2-yl]pyridin-2-yl}carbamate], 82 nM.
On to `COc1cc(C(=O)Nc2cc(-c3[nH]c4c(c3Nc3ccccc3)C(=O)COC4)ccn2)ccc1F` [Example 140, N-[4-(3-Anilino-4-oxo-1,4,5,7-tetrahydropyrano[3,4-b]pyrrol-2-yl)pyridin-2-yl]-4-fluoro-3-methoxybenzamide], for which the concentration for half-maximal inhibition (IC50) is 31 nM.
As for `COC(=O)N1CC(=O)c2c([nH]c(-c3ccnc(NC(C)=O)c3)c2Nc2ccccc2)C1` [Example 31, Methyl 2-[2-(acetylamino)pyridin-4-yl]-4-oxo-3-(phenylamino)-1,4,5,7-tetrahydro-6H-pyrrolo[2,3-c]pyridine-6-carboxylate], the figure is 7 nM; as for `COC(=O)N1CC(=O)c2c([nH]c(-c3ccnc(NC(=O)[C@@H]4C[C@H]4F)c3)c2Nc2ccccc2)C1` [Example 143, Methyl 3-anilino-2-[2-({[(1S,2R)-2-fluorocyclopropyl]carbonyl}amino)pyridin-4-yl]-4-oxo-1,4,5,7-tetrahydro-6H-pyrrolo[2,3-c]pyridine-6-carboxylate], 6 nM.
As for `CC(C)(C)OC(=O)N1CC(=O)c2c([nH]c(-c3ccnc(NC(=O)c4cnn[nH]4)c3)c2Nc2ccccc2)C1` [Example 274, tert-Butyl 4-oxo-3-(phenylamino)-2-2-[(1H-1,2,3-triazol-5-ylcarbonyl)amino]pyridin-4-yl-1,4,5,7-tetrahydro-6H-pyrrolo[2,3-c]pyridine-6-carboxylate], the figure is 10 nM; as for `CCC(=O)N1CC(=O)c2c([nH]c(-c3ccnc(NC(C)=O)c3)c2Nc2ccccc2)C1` [Example 180, N-[4-(3-Anilino-4-oxo-6-propionyl-4,5,6,7-tetrahydro-1H-pyrrolo[2,3-c]pyridin-2-yl)pyridin-2-yl]acetamide], 5 nM; as for `COCCOc1cnccc1-c1[nH]c2c(c1Nc1ccccc1)C(=O)CN(C(=O)OC)C2` [Example 248, Methyl 2-[3-(2-methoxyethoxy)pyridin-4-yl]-4-oxo-3-(phenylamino)-1,4,5,7-tetrahydro-6H-pyrrolo[2,3-c]pyridine-6-carboxylate], 5 nM.
With `O=C1COCc2[nH]c(-c3ccncc3C(F)(F)F)c(Nc3ccccc3)c21` [Example 300, 3-(Phenylamino)-2-[3-(trifluoromethyl)pyridin-4-yl]-1,7-dihydropyrano[3,4-b]pyrrol-4(5H)-one] the figure was 8210 nM; with `O=C1CN(C(=O)c2ccncc2)Cc2[nH]c(-c3ccncc3)c(Nc3ccccc3)c21` [Example 63, 3-(phenylamino)-2-(pyridin-4-yl)-6-(pyridin-4-ylcarbonyl)-1,5,6,7-tetrahydro-4H-pyrrolo[2,3-c]pyridin-4-one], 9 nM; with `COC(=O)N1CC(=O)c2c([nH]c(-c3ccnc(C)n3)c2Nc2ccccc2)C1` [Example 27, Methyl 2-(2-methylpyrimidin-4-yl)-4-oxo-3-(phenylamino)-1,4,5,7-tetrahydro-6H-pyrrolo[2,3-c]pyridine-6-carboxylate], 59 nM.
Regarding `CC(C)(C)OC(=O)N1CC(=O)c2c([nH]c(-c3ccnc(NC(=O)c4cncs4)c3)c2Nc2ccccc2)C1` [Example 122, tert-Butyl 4-oxo-3-(phenylamino)-2-{2-[(1,3-thiazol-5-ylcarbonyl)amino]pyridin-4-yl}-1,4,5,7-tetrahydro-6H-pyrrolo[2,3-c]pyridine-6-carboxylate], the IC50 turned out to be 6 nM.
With `CC(=O)N1CC(=O)c2c([nH]c(-c3ccnc(NC(=O)c4ccc(F)cc4)c3)c2Nc2ccccc2)C1` [Example 271, N-4-[6-Acetyl-4-oxo-3-(phenylamino)-4,5,6,7-tetrahydro-1H-pyrrolo[2,3-c]pyridin-2-yl]pyridin-2-yl-4-fluorobenzamide] the figure was 5 nM.
On to `CC(=O)Nc1cc(-c2[nH]c3c(c2Nc2ccccc2)C(=O)CN(C(=O)OC(C)(C)C)C3)ccn1` [Example 23, tert-Butyl 2-[2-(acetylamino)pyridin-4-yl]4-oxo-3-(phenylamino)-1,4,5,7-tetrahydro-6H-pyrrolo[2,3-c]pyridine-6-carboxylate], for which the half-inhibitory concentration (IC50) is 1660 nM.
As for `CNC(=O)N1CC(=O)c2c([nH]c(-c3ccnc(NC(C)=O)c3)c2Nc2ccc(C)cc2)C1` [Example 320, 2-[2-(Acetylamino)pyridin-4-yl]-N-methyl-3-[(4-methylphenyl)amino]-4-oxo-1,4,5,7-tetrahydro-6H-pyrrolo[2,3-c]pyridine-6-carboxamide], the figure is 178 nM; as for `CNC(=O)N1CC(=O)c2c([nH]c(-c3ccncc3)c2Nc2ccccc2)C1` [Example 81, N-Methyl-4-oxo-3-(phenylamino)-2-(pyridin-4-yl)-1,4,5,7-tetrahydro-6H-pyrrolo[2,3-c]pyridine-6-carboxamide], 4 nM.
As for `CC(C)OC(=O)N1CC(=O)c2c([nH]c(-c3ccnc(NC(=O)C(C)(C)F)c3)c2Nc2ccccc2)C1` [Example 155, Isopropyl 3-anilino-2-{2-[(2-fluoro-2-methylpropanoyl)amino]pyridin-4-yl}-4-oxo-1,4,5,7-tetrahydro-6H-pyrrolo[2,3-c]pyridine-6-carboxylate], the figure is 60 nM; as for `CNC(=O)N1CC(=O)c2c([nH]c(-c3ccncc3OCC(F)F)c2Nc2ccccc2)C1` [Example 237, 2-[3-(2,2-Difluoroethoxy)pyridin-4-yl]-N-methyl-4-oxo-3-(phenylamino)-1,4,5,7-tetrahydro-6H-pyrrolo[2,3-c]pyridine-6-carboxamide], 18 nM.
